Data from PMC2365101, “Anti-Inflammatory Activity of (Polyphenolic)-Sulfonates and Their Sodium Salts in Rodents” (Metal-Based Drugs, 1998).

Assays:
[1] = test system: CF1 male mice, LPS Salmonella abortus equi induced death; test: Protection against septic shock (LPS induced endotoxic shock); assay type: in vivo; conditions: for Percent Survival at 52 hr: LPS 10 mg/kg, CF1 male mice, N=6; for protection from LPS induced death: 16 mg/kg
Description: Few reports in the literature indicate interaction at these receptor sites other than by peptides or antibodies. […] Blocking these receptors is desirable because the entire inflammation cascade of events is triggered by the early release of TNFa and IL-1. […] Radioisotopes were obtained from New England Nuclear [Dupont, Boston, MA] and substrates and co- factors were obtained from Sigma Chemical Co. [St. Louis, MO]. […] Cell lines were obtained from American Type Culture Collection [Rockville, MD]. In Vivo Tests Anti-inflammatory screen in mice: Male CF male mice weighing 28-32g obtained from Jackson Lab. [Bar Harbor, […]] were used to screen agents at 8 or 16 mg/kg intraperitoneal [I.P.] x 2 administered 3 hr and 30 min prior to administering the irritant, according to Winter's protocol. Evaluation of the induced edema was made by injecting 2% carrageenan in 0.9% saline into the plantar region of the foot. The opposite foot injected with 0.9% isotonic saline was used as a base line. […] Salmonella abortus equi [Lot # 69F4003] […] Drugs from 2 to 16 mg/kg, I.P. were administered 2 hr prior and 2 hr post-injection of the LPS and then subsequently for every 24 hr for the length ofthe animals' lives. Deaths were recorded every 12 hr and continued for 96 hr. […] In vitro TNFa andIL-1 Measurements and Cellular Regulation IC-21 mouse macrophages were maintained in RPMI-1640 + 10% FCS + P/S. After the cells had grown to confluency, E. coli LPS at 10 Ixg/ml was added to the medium. Agents were incubated at 12.5 to 100 µM final concentration for 18 hr. The medium (100 btl) was collected for TNFCt determinations. Interleukin-1 [IL-1] release was determined using P388D1 cells which were maintained in RPMI-1640 + 10% FCS + P/S. The L929 bioassay was used to quantitate the TNF and the IL-1 levels. The L929 mouse fibroblasts were grown in DMEM + 10% FCS + P/S to confluency in 96 well plates and incubated with 100 tl ofmedium from […] or P388D cells after 18 hr. The cells were stained with 0.2% crystal violet in 20% MeOH and read at 580 nm using a Molecular Devices scanner (SOFT-max program). High Affinity Binding to Receptors on L929-106 Cells Two laCi of 125I-TNFct (human recombinant, 30 mCi/tg New England Nuclear) or 125I-IL-1 (70-120[.t Ci/lxg,New England Nuclear) was added to confluency L929 cells for 90 min or 5 hr, respectively with 25, 50 and 100 tM of the test compounds 12]. The cells were washed repeatedly with isotonic saline, pH.7.2 and aliquots counted. Prostaglandin cylcooxygenase activity Mouse J774AI macrophages maintained in Dulbecco's modified Eagle's medium + 15% FCS + P/S. Cells (5 x 106) were incubated with agents (5 to 100 ].tM final concentration) and 3H-arachidonic acid (100 Ci/mol) for 60 min at 37C in a CO2 incubator. The reaction was terminated with 2N HCI, the mixture extracted 2 X with ether, and the organic layer evaporated.

[2] = target: T1, IL-2 high affinity receptor on HUT78 T lymphoma cell membrane (Homo sapiens, UniProt P01589+P14784); test: 125I-IL-2 high affinity binding to HuT78 T lymphoma cells; conditions: for 125I-IL-2 binding, Percent of Control: N=6; for reduction of IL-2 high affinity binding: 5 hr
T1 construct: host or cells: HuT78 T lymphoma cells
T1 sequence (P01589 22-272): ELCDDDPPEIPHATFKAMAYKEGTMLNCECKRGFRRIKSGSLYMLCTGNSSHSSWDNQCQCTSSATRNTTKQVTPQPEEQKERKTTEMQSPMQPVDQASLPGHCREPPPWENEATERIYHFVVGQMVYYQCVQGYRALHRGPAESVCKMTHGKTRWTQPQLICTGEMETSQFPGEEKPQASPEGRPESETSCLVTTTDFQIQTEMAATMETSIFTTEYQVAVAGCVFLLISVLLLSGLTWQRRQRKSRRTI
T1 sequence (P14784 27-551): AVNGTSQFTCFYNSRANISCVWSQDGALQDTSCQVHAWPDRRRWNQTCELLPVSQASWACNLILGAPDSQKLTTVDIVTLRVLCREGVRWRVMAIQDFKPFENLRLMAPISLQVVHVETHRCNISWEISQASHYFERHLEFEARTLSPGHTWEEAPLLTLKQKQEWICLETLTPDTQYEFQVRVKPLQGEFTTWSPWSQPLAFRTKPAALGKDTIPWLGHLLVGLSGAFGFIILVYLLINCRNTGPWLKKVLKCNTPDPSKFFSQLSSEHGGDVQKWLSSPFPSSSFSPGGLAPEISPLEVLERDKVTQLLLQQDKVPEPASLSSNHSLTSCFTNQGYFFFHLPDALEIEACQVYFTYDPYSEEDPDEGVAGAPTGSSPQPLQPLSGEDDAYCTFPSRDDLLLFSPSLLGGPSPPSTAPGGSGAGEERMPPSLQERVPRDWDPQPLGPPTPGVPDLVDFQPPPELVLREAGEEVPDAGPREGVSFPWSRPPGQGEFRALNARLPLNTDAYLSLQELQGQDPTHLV

[3] = test system: RPMI 1788 leukocytes adhesion to L929 fibroblasts; test: Adhesion of human leukocytes RPMI-1788 to confluent L929 fibroblasts; assay type: cell-based; conditions: for Adhesion, Percent of Control: N=6; for reducing the adhesion of human leukocytes / reducing significantly the adhesion of human leukocytes: 5 to 50 μM; for reducing the adhesion of human leukocytes: at 2 and 5 hr; for reducing significantly the adhesion of human leukocytes: at 60 and 90 min
[4] = test system: J774 A1 mouse macrophages adhesion to L929 fibroblasts; test: Adhesion of J-774 A1 mouse macrophages to confluent L929 fibroblasts; assay type: cell-based; conditions: N=6

Compound	Percent Survival at 52 hr ([1]; 8 mg/Kg I.P.)	Percent Survival at 52 hr ([1]; 16 mg/Kg I.P.)	protection from LPS induced death [1]	125I-IL-2 binding, Percent of Control ([2]; 5 μM, 2 Hours)	125I-IL-2 binding, Percent of Control ([2]; 5 μM, 5 Hours)	125I-IL-2 binding, Percent of Control ([2]; 12.5 μM, 2 Hours)	125I-IL-2 binding, Percent of Control ([2]; 12.5 μM, 5 Hours)	125I-IL-2 binding, Percent of Control ([2]; 25 μM, 2 Hours)	125I-IL-2 binding, Percent of Control ([2]; 25 μM, 5 Hours)	125I-IL-2 binding, Percent of Control ([2]; 50 μM, 2 Hours)	125I-IL-2 binding, Percent of Control ([2]; 50 μM, 5 Hours)	reduction of IL-2 high affinity binding ([2]; 50 μM)	Adhesion, Percent of Control ([3]; 5 μM, 60 min)	Adhesion, Percent of Control ([3]; 5 μM, 90 min)	Adhesion, Percent of Control ([3]; 12.5 μM, 60 min)	Adhesion, Percent of Control ([3]; 12.5 μM, 90 min)	Adhesion, Percent of Control ([3]; 25 μM, 2 Hours)	Adhesion, Percent of Control ([3]; 25 μM, 60 min)	Adhesion, Percent of Control ([3]; 25 μM, 90 min)	Adhesion, Percent of Control ([3]; 50 μM, 2 Hours)	also measured
CC(=O)Oc1c2cc(S(=O)(=O)[O-])cc1Cc1cc(S(=O)(=O)[O-])cc(c1OC(C)=O)Cc1cc(S(=O)(=O)[O-])cc(c1OC(C)=O)Cc1cc(S(=O)(=O)[O-])cc(c1OC(C)=O)Cc1cc(S(=O)(=O)[O-])cc(c1OC(C)=O)Cc1cc(S(=O)(=O)[O-])cc(c1OC(C)=O)Cc1cc(S(=O)(=O)[O-])cc(c1OC(C)=O)Cc1cc(S(=O)(=O)[O-])cc(c1OC(C)=O)C2.[Na+].[Na+].[Na+].[Na+].[Na+].[Na+].[Na+].[Na+] [Compound 8]	67%	83%	83%	138 + 5% of Control	85 + 5% of Control	215 + 7% of Control	78 + 4% of Control	88 + 6% of Control	59 + 5% of Control	38 + 4% of Control	55 + 6% of Control	45%	49 + 7% of Control	108+6% of Control	40+ 5% of Control	65 +6% of Control	108+4% of Control	41 +5% of Control	63+3% of Control	116+6% of Control	Percent Survival at 52 hr ([1]; 2 mg/kg I.P.): 67%; Percent Survival at 52 hr ([1]; 4 mg/Kg I.P.): 67%; reduction of IL-2 binding ([2]; 50 μM, 2 hr): 62%; Adhesion, Percent of Control ([3]; 50 μM, 60 min): 55+4% of Control; reducing the adhesion of human leukocytes [3]: not effective; reducing significantly the adhesion of human leukocytes [3]: effective; Adhesion, Percent of Control ([4]; 5 μM, 2 Hours): 73 + 5% of Control; Adhesion, Percent of Control ([4]; 5 μM, 5 Hours): 107 + 5% of Control; Adhesion, Percent of Control ([4]; 5 μM, 90 min): 136 + 5% of Control; Adhesion, Percent of Control ([4]; 12.5 μM, 2 Hours): 61 + 6% of Control; Adhesion, Percent of Control ([4]; 12.5 μM, 5 Hours): 106 + 6% of Control; Adhesion, Percent of Control ([4]; 12.5 μM, 90 min): 135 + 7% of Control; Adhesion, Percent of Control ([4]; 25 μM, 2 Hours): 91 + 5% of Control; Adhesion, Percent of Control ([4]; 25 μM, 5 Hours): 125 + 7% of Control; Adhesion, Percent of Control ([4]; 25 μM, 90 min): 183 + 7% of Control; Adhesion, Percent of Control ([4]; 50 μM, 2 Hours): 92 + 6% of Control; Adhesion, Percent of Control ([4]; 50 μM, 5 Hours): 131 + 7% of Control; Adhesion, Percent of Control ([4]; 50 μM, 90 min): 94 + 6% of Control
COc1c2cc(S(=O)(=O)[O-])cc1Cc1cc(S(=O)(=O)[O-])cc(c1OC)Cc1cc(S(=O)(=O)[O-])cc(c1OC)Cc1cc(S(=O)(=O)[O-])cc(c1OC)Cc1cc(S(=O)(=O)[O-])cc(c1OC)Cc1cc(S(=O)(=O)[O-])cc(c1OC)C2.[Na+].[Na+].[Na+].[Na+].[Na+].[Na+] [Compound 6]	50%	100%	100%	142 + 6% of Control	100 + 6% of Control	115 + 5% of Control	92 + 6% of Control	85 + 5% of Control	78 + 5% of Control	81 + 4% of Control	55 + 4% of Control	45%	46 + 4% of Control	62 + 5% of Control	49 + 6% of Control	55 + 6% of Control	100 + 6% of Control	30 + 3% of Control	71 + 5% of Control	108 + 6% of Control	Adhesion, Percent of Control ([3]; 12.5 μM, 2 Hours): 125 + 5% of Control; Adhesion, Percent of Control ([3]; 12.5 μM, 5 Hours): 92 + 4% of Control; Adhesion, Percent of Control ([3]; 25 μM, 5 Hours): 95 + 5% of Control; Adhesion, Percent of Control ([3]; 50 μM, 5 Hours): 88+ 7% of Control; Adhesion, Percent of Control ([3]; 50 μM, 60 min): 41 + 5% of Control; reducing the adhesion of human leukocytes [3]: not effective; reducing significantly the adhesion of human leukocytes [3]: effective; Adhesion, Percent of Control ([4]; 5 μM, 2 Hours): 123 + 6% of Control; Adhesion, Percent of Control ([4]; 5 μM, 5 Hours): 88 + 5% of Control; Adhesion, Percent of Control ([4]; 5 μM, 90 min): 137 + 6% of Control; Adhesion, Percent of Control ([4]; 12.5 μM, 2 Hours): 77 + 6% of Control; Adhesion, Percent of Control ([4]; 12.5 μM, 5 Hours): 109 + 6% of Control; Adhesion, Percent of Control ([4]; 12.5 μM, 90 min): 133 + 5% of Control; Adhesion, Percent of Control ([4]; 25 μM, 2 Hours): 118 + 7% of Control; Adhesion, Percent of Control ([4]; 25 μM, 5 Hours): 131 + 6% of Control; Adhesion, Percent of Control ([4]; 25 μM, 90 min): 128 + 7% of Control; Adhesion, Percent of Control ([4]; 50 μM, 2 Hours): 122 + 6% of Control; Adhesion, Percent of Control ([4]; 50 μM, 5 Hours): 119 + 5% of Control; Adhesion, Percent of Control ([4]; 50 μM, 90 min): 103 + 7% of Control
